# Data: US8916586B2, “Anti-angiogenic compound” (University College Dublin—National University of Ireland, …, priority 2011, dated 2014)
# Entries after “also recorded” stand apart in the source; their conditions may differ.
# Key:
# [1] = system: hyaloid vasculature in zebrafish; assay: Zebrafish developmental angiogenesis assay: number of primary branches of hyaloid vasculature on dissected lens; format: in vivo; settings: 10 μM, treated day 1-5, analysed 5 dpf
# Excerpt: We have used the zebrafish model as an in vivo screen for chemical libraries as the small size and transparency of the zebra fish enables high-content screens in multi-well plate formats (MacRae and Peterson, 2003; Pichler et al., 2003; Peterson et al., 2004; den Hertog, 2005; Zon and Peterson, 2005). […] To identify anti-angiogenic drugs we used a transgenic line of zebrafish that expresses a fluorescent reporter (EGFP) specifically in vasculature (Tg(fli1:efgp)). This line was obtained from the Zebrafish International Resource Center. Our assay involved screening the effect of drugs in the library on the development of blood vessels in zebrafish. Specifically, we looked at the integrity of vessels developing in the eye (hyaloid vessels attached to the lens) and in the trunk.
# All experiments were carried out under ethical approval granted by the UCD animal research ethics committee. Tg(fli1:EGFP) zebrafish were maintained according to standard procedures on a 14 hr light/10 hr dark cycle at 28° C. Referring to the schematic of FIG. 1A, embryos were obtained by natural spawning and developmental stages established by time and morphological criteria. A chemical library containing numerous compounds was screened (FIG. 1A). In this specific example, the chemical library contained 5000 compounds of the DIVERSet™ collection from ChemBridge Corp., USA. At 24 hours post fertilisation (hpf), 5 embryos per well were placed in […] of Embryo Medium/1% DMSO and incubated with drug at 28° C. on a 14 h light/10 h dark cycle. Larvae were euthanised, and fixed in 4% PFA at 4° C. overnight before analysis. (FIG. 1A).
# Right lenses were dissected from the larvae and transferred to depression slides for observation under epi-fluorescence in the Olympus SZX16 and to cover-slip bottom Petri-dishes for confocal microscopy in a Zeiss UV510 META LSM system (20× and 40× inverted objectives). To achieve appropriate orientation, lenses were embedded in 10% methyl-cellulose and manipulated with a tungsten needle (0.5 mm diameter). Patterning of the hyaloid vessels on the treated larval lenses was compared to DMSO controls and the archetypal pattern previously described (Alvarez et al., 2007; Alvarez et al., 2009). The number of primary vessels radiating from the back of the lens (3-4 main branches at 5 dpf in controls and previously described), was counted and the average number was graphed for each drug. From screens of ˜1600 small molecules, four “hits” that inhibited the number of primary hyaloids vessels were identified (FIG. 1B).
# To validate the “hits” from the library screen, dose-dependence experiments were conducted by screening the drugs in the assay described in Example 2 above but at a range of increasing concentrations between 1-10 μM. Larvae were maintained under the drug treatments at 28° C. on 14 hr light/10 hr dark cycle until 5 days post fertilisation (dpf), when they were euthanised and fixed in 4% PFA at 4° C. overnight before analysis. The average number of primary hyaloids branches was graphed for each concentration of drug. […] One of the lead compounds identified by the screen of chemical library was 11B which has the chemical name 2-[2-2-quinolinyl)vinyl]phenol and its structure shown below: […]
# [2] = system: dermal-derived normal human microvascular endothelial cells (HMVEC-d); assay: In vitro HMVEC-d tube formation assay on Matrigel; format: cell-based; settings: 100 nM, 20 hr
# Procedure: HMVEC-d were purchased from Clonetics, San Diego, Calif., USA. Cells were maintained in complete Endothelial Cell Medium (Clonetics® EGM®-2-MV BulletKit®) containing 500 ml of Endothelial Cell Basal Medium-2 and supplemented with hEGF, 0.5 ml; Hydrocortisone, 0.2 ml; GA-1000, 0.5 ml; FBS, 25 ml; VEGF, 0.5 ml; hFGF-B, 2.0 ml; R3-IGF-1, 0.5 ml; Ascorbic Acid, 0.5 ml in a 37° C. humidified atmosphere of 5% CO2/95% air. HMVEC-d were used for experiments between passages 4-8.
# Matrigel (Becton Dickenson) basement membrane matrix was used to examine HMVEC-d tube formation. Matrigel (50 μl) was plated in 96 well culture plate wells after thawing on ice and allowed to polymerise at 37° C. 5% CO2 humidified atmosphere for 1 hr. HMVEC-d were removed from culture, trypsinised, and resuspended in full strength EGM growth medium. Cells were seeded at a density of 50×10^4 cells/cm^2 and incubated for 20 hr at 37° C. 5% CO2 humidified atmosphere. Endothelial cell tubule formation was assessed using phase contrast microscopy and photographed. A connecting branch between two discrete ECs was counted as one tube. The tube analysis was determined from 3 sequential fields (magnification×10) focusing on the surface of the matrigel.
# [3] = system: mouse model of oxygen induced retinopathy (OIR); assay: Mouse oxygen-induced retinopathy (OIR) model of ocular neovascularisation; format: in vivo; settings: 2 μg/μl, postnatal day 12-17, intravitreal
# Procedure: To assess the ability of compound 11B to inhibit ocular neovascularisation in mammalian eyes, 11B was tested in the mouse model of oxygen induced retinopathy (OIR). […] 11B was injected intravitreally into a mouse model of oxygen-induced retinopathy (OIR). The OIR model was generated by placing postnatal day 7 (P7) mouse pups into hyperoxia (75% oxygen) for 5 days and then removing them to normoxia (21%) on postnatal day 12 (P12). The hyperoxic (high oxygen) environment causes retinal blood vessels to regress between P7 and P12. The normoxic environment on P12 is a relatively hypoxic (low oxygen) environment for the mice and causes the growth of new blood vessels (angiogenesis). For all samples, eyes were enucleated, fixed, flat mounted and then stained with an isolectin antibody to visualise the blood vessels. Blood vessels were quantified and those treated with lead compounds compared to controls.
Molecule,number of primary branches of hyaloid vasculature [1],inhibition of HMVEC-d tubule formation [2],avascular area of the retina in treated eyes [3]
"COc1cc2c(cc1OC)[C@H](c1ccc3c(c1)OCO3)N(C)CC2 (single isomer, unassigned) [11F-522S]",did not reduce,–,–
"COc1cc2c(cc1OC)C(c1ccc3c(c1)OCO3)N(C)CC2 (racemic) [11F-522, 1-(1,3-benzodioxol-5-yl)-6,7-dimethoxy-2-methyl-1,2,3,4-tetrahydroisoquinoline]",inhibited developmental angiogenesis; also recorded: significant (p<0.05) reduction; also recorded: significant inhibition; also recorded: significantly reduce,–,–
"Oc1ccc(/C=C\c2ccnc3ccccc23)cc1 [11B-799, 4-[2-(4-quinolinyl)vinyl]phenol]",inhibits developmental angiogenesis; also recorded: significant inhibition,–,–
"Avastin: clinically used anti-angiogenic monoclonal antibody, anti-VEGF [reference compound]",–,significantly inhibited,~22%
"COc1cc2c(cc1OC)[C@@H](c1ccc3c(c1)OCO3)N(C)CC2 (single isomer, unassigned) [11F-522R]",significant (p<0.05) reduction; also recorded: significantly reduce,–,–
